Experimental data reported in article PMC6834593, “Chemical activation of divergent protein tyrosine phosphatase domains with cyanine-based biarsenicals” (Scientific Reports, 2019).

What was measured:
Type in all cases: biochemical
[1] = target: T1, actPTPκ (PTPkappa) (Homo sapiens, UniProt Q15262, H1056C/V1053C/Y1055C); assay: pNPP phosphatase assay (activation, dose dependence); also in-gel fluorescence of labelled protein in lysate
T1 construct: gene PTPRK; His6-tagged catalytic domain, residues 870–1154
T1 sequence (Q15262 869-1153 V1053C/Y1055C/H1056C): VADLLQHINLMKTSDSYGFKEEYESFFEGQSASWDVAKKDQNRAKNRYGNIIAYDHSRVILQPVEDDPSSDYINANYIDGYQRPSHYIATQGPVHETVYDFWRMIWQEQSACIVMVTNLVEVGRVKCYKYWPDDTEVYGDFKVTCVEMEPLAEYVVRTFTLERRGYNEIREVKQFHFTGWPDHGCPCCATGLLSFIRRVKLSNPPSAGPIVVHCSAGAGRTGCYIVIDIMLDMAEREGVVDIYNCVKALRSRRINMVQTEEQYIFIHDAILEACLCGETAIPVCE

[2] = target: T2, actHePTP (hematopoietic PTP) (Homo sapiens, UniProt P35236, E262C/S263C/T260C); assay: as above
T2 construct: gene PTPN7; His6-tagged catalytic domain, residues 65–360
T2 sequence (P35236 65-360 T260C/E262C/S263C): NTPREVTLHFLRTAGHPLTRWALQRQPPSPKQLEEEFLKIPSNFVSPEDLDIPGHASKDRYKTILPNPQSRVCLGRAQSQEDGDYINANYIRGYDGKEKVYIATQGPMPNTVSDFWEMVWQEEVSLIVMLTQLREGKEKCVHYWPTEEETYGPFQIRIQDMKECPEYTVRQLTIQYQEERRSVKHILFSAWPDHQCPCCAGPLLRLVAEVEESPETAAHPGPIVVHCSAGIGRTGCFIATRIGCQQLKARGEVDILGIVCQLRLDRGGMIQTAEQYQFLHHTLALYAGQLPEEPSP

[3] = target: T3, actSHP2 (Src-homology-2-domain-containing PTP 2) (Homo sapiens, UniProt Q06124, C333P/V428C/S430C/D431C); assay: pNPP phosphatase assay (activation at […])
T3 construct: gene PTPN11; His6-tagged catalytic domain
T3 sequence (Q06124 247-517 C333P/V428C/S430C/D431C limits assumed): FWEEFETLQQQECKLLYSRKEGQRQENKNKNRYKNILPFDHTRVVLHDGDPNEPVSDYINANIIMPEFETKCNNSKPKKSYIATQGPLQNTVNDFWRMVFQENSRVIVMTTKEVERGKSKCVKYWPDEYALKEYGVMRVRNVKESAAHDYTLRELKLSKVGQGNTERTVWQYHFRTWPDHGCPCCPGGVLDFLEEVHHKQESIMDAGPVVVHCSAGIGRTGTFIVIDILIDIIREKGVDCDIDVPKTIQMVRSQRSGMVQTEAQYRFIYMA

For `CC1(C)C(/C=C/C=C/C=C2/N(CCCCS(=O)(=O)O)c3ccc([As]4SCCS4)cc3C2(C)C)=[N+](CCCCS(=O)(=O)[O-])c2ccc([As]3SCCS3)cc21` [AsCy5], which AC50 [1] is on record?
The AC50 was about 600 nM.

What about the AC50 [2] of the same molecule?
Its AC50 is about 200 nM.

What about the “pNPP phosphatase assay (activation at 1 μM)” value [3] of the same molecule?
The value was “Both cyanine-derived biarsenicals, AsCy3 and AsCy5, were more successful in activating actSHP2 than FlAsH and ReAsH”.
